Values joined by “and” are separate entries in the source; they are usually repeats but may differ in a detail not shown here. Identical values can stand only once. Where a SMILES comes first, the peptide text is derived from it. [ ]: non-standard residue; d: D form. Hyp = O=C(O)[C@@H]1C[C@@H](O)CN1
System: TIMP-1
Assay: Example 8 main study Luminex, LPS hPBMCs: TIMP-1
Assay type: cell-based, human
Experimental: Human PBMCs were pretreated with YY-101, YDE-011, YDE-043 or reference compound; Xiidra® at various concentration (ranging from […] to 500 nM) for 2 h before stimulation. An equal volume of 0.5% DMSO was used as a vehicle control. Then, the cells were treated with LPS at 5 ug/ml, which was selected based on the pilot study. The supernatants from treated cells were harvested at 24 h and placed in a 96 well for Luminex cytokine & chemokine profiling using a Luminex 200 multiplex assay (Luminex; R&D system, USA).
The main study arm with triplicate wells per group in a 24-well plate: • 1. Blank • 2. PBMC: 0.5% DMSO • 3. PBMC+LPS (5 ug/ml) • 4. PBMC+YY-101 500 nM • 5. PBMC+YY-101 50 nM • 6. PBMC+YY-101 5 nM • 7. PBMC+YY-101 0.5 nM • 8. PBMC+LPS (5 ug/ml)+Xiidra® 500 nM • 9. PBMC+LPS (5 ug/ml)+Xiidra® 50 nM • 10. PBMC+LPS (5 ug/ml)+Xiidra® 5 nM • 11. PBMC+LPS (5 ug/ml)+Xiidra® 0.5 nM • 12. PBMC+LPS (5 ug/ml)+Xiidra® 0.05 nM • 13. PBMC+LPS (5 ug/ml)+Xiidra® 0.005 nM • 14. PBMC+LPS (5 ug/ml)+YY-101 500 nM • 15. PBMC+LPS (5 ug/ml)+YY-101 50 nM • 16. PBMC+LPS (5 ug/ml)+YY-101 5 nM • 17. PBMC+LPS (5 ug/ml)+YY-101 0.5 nM • 18. PBMC+LPS (5 ug/ml)+YY-101 0.05 nM • 19. PBMC+LPS (5 ug/ml)+YY-101 0.005 nM • 20. PBMC+LPS (5 ug/ml)+YDE-011 500 nM • 21. PBMC+LPS (5 ug/ml)+YDE-011 50 nM • 22. PBMC+LPS (5 ug/ml)+YDE-011 5 nM • 23. PBMC+LPS (5 ug/ml)+YDE-011 0.5 nM • 24. PBMC+LPS (5 ug/ml)+YDE-011 0.05 nM • 25. PBMC+LPS (5 ug/ml)+YDE-011 0.005 nM • 26. PBMC+LPS (5 ug/ml)+YDE-043 500 nM • 27. PBMC+LPS (5 ug/ml)+YDE-043 50 nM • 28. PBMC+LPS (5 ug/ml)+YDE-043 5 nM • 29. PBMC+LPS (5 ug/ml)+YDE-043 0.5 nM • 30. PBMC+LPS (5 ug/ml)+YDE-043 0.05 nM • 31. PBMC+LPS (5 ug/ml)+YDE-043 0.005 nM
Multiplex assay was used to measure 30 cytokines and chemokines. The 1:200 diluted cell supernatant and serial dilution of the standard were dispensed into a 96 well plate at 50 ul/well. Then, the pre-mixed cocktail of antibody-coated magnetic beads was dispensed at 50 ul/well and incubated at room temperature for 2 h in a horizontal orbital microplate shaker at 800±500 rpm. The beads were washed using a magnetic device to prevent loss. The biotin-antibody was dispensed in 50 ul of each well and incubated at room temperature for 1 h in a shaker at 800±500 rpm. After washing, streptavidin-PE was added at 50 ul/well and incubated at room temperature for 30 min in a shaker under the same conditions. Finally, after washing, wash buffer (100 ul/well) was added to the plate and incubated in a shaker for 2 min. The Luminex™ 200 setting were set according to the manufacturer's protocol. The data was calculated with a standard five-parameter logistic nonlinear regression analysis of the data (xPonent software 4.2, USA). Results were presented as concentration (ng/ml or pg/ml).

[1] = PBMC + LPS(5 ug/ml), test article 0.005 nM
[2] = PBMC + LPS(5 ug/ml), test article 0.05 nM
[3] = PBMC + LPS(5 ug/ml), test article 0.5 nM
[4] = PBMC + LPS(5 ug/ml), test article 5 nM
[5] = PBMC + LPS(5 ug/ml), test article 50 nM
[6] = PBMC + LPS(5 ug/ml), test article 500 nM
[7] = PBMC without LPS, test article 0.5 nM
[8] = PBMC without LPS, test article 5 nM
[9] = PBMC without LPS, test article 0.05 uM
[10] = PBMC without LPS, test article 50 nM
[11] = PBMC without LPS, test article 500 nM

SMILES	TIMP-1 Concentration (pg/ml), Mean [1]	TIMP-1 Concentration (pg/ml), single replicates [1]	TIMP-1 Concentration (pg/ml), Mean [2]	TIMP-1 Concentration (pg/ml), single replicates [2]	TIMP-1 Concentration (pg/ml), Mean [3]	TIMP-1 Concentration (pg/ml), single replicates [3]	TIMP-1 Concentration (pg/ml), Mean [4]	TIMP-1 Concentration (pg/ml), single replicates [4]	TIMP-1 Concentration (pg/ml), Mean [5]	TIMP-1 Concentration (pg/ml), single replicates [5]	TIMP-1 Concentration (pg/ml), Mean [6]	TIMP-1 Concentration (pg/ml), single replicates [6]	further results
CC(C)C[C@H](NC(=O)[C@H](CCC(N)=O)NC(=O)CNC(=O)[C@@H]1C[C@@H](O)CN1)C(=O)NCC(=O)O [YDE-043] (H-[Hyp]GQLG-OH; N-terminus and C-terminus assumed)	4681.6 pg/mL	3935.4 pg/mL and 5543.0 pg/mL and 4566.3 pg/mL	4088.2 pg/mL	4259.2 pg/mL and 4414.6 pg/mL and 3590.9 pg/mL	4203.1 pg/mL	4259.2 pg/mL and 4414.6 pg/mL and 3935.4 pg/mL	4463.9 pg/mL	4566.3 pg/ml (2×) and 4259.2 pg/ml	4351.3 pg/mL	3935.4 pg/mL and 4859.3 pg/mL and 4259.2 pg/mL	4299.5 pg/mL	4566.3 pg/ml (2×) and 3766.0 pg/ml	–
CC(C)C[C@H](NC(=O)CNC(=O)[C@H](CC(C)C)NC(=O)[C@H](CCC(N)=O)NC(=O)CNC(=O)[C@@H]1C[C@@H](O)CN1)C(=O)N[C@@H](C)C(=O)NCC(=O)N1CCC[C@H]1C(=O)N[C@@H](CCCCN)C(=O)O [YDE-011] (H-[Hyp]GQLGLAGPK-OH)	4036.4 pg/mL	4259.2 pg/ml (2×) and 3590.9 pg/ml	4288.3 pg/mL	4414.6 pg/mL and 3590.9 pg/mL and 4859.3 pg/mL	4080.2 pg/mL	3590.9 pg/mL and 3935.4 pg/mL and 4714.4 pg/mL	4128.5 pg/mL	4859.3 pg/mL and 3935.4 pg/mL and 3590.9 pg/mL	4253.6 pg/mL	3935.4 pg/mL and 4259.2 pg/mL and 4566.3 pg/mL	3820.5 pg/mL	3935.4 pg/ml (2×) and 3590.9 pg/ml	–
CC(C)C[C@H](NC(=O)CNC(=O)[C@H](CC(=O)O)NC(=O)[C@H](CCC(N)=O)NC(=O)CNC(=O)[C@@H]1C[C@@H](O)CN1)C(=O)N[C@@H](C)C(=O)NCC(=O)N1CCC[C@H]1C(=O)N[C@@H](CCCCN)C(=O)O [YY-101] (H-[Hyp]GQDGLAGPK-OH; N-terminus and C-terminus assumed)	3912.8 pg/mL	4259.2 pg/ml (2×) and 3220.1 pg/ml	3820.5 pg/mL	3935.4 pg/ml (2×) and 3590.9 pg/ml	4128.5 pg/mL	3935.4 pg/mL and 3590.9 pg/mL and 4859.3 pg/mL	3696.9 pg/mL	3935.4 pg/ml (2×) and 3220.1 pg/ml	3696.9 pg/mL	3935.4 pg/ml (2×) and 3220.1 pg/ml	3696.9 pg/mL	3935.4 pg/ml (2×) and 3220.1 pg/ml	TIMP-1 Concentration (pg/ml), Mean [7]: 6580.9 pg/mL; TIMP-1 Concentration (pg/ml), single replicates [7]: 6173.1 pg/mL and 6988.8 pg/mL; TIMP-1 Concentration (pg/ml), Mean [8]: 6228.8 pg/mL; TIMP-1 Concentration (pg/ml), single replicates [8]: 6531.0 pg/mL and 5926.6 pg/mL; TIMP-1 Concentration (pg/ml), Mean [9]: 8751.3 pg/mL; TIMP-1 Concentration (pg/ml), single replicates [9]: 10402.5 pg/mL and 7100.2 pg/mL; TIMP-1 Concentration (pg/ml), Mean [10]: 6928.9 pg/mL; TIMP-1 Concentration (pg/ml), single replicates [10]: 7210.4 pg/mL and 6647.4 pg/mL; TIMP-1 Concentration (pg/ml), Mean [11]: 7209.9 pg/mL; TIMP-1 Concentration (pg/ml), single replicates [11]: 7100.2 pg/mL and 7319.6 pg/mL
